{
  "source": "patent US20080031968A1",
  "about": "“Methods for increasing cellular energy expenditure” (priority 2005, published 2008)",
  "key": {"KK-Ay mice [1]": {"tested_on": "KK-Ay mice", "assay": "In vivo VLDL TG production (Tyloxapol) in KK-Ay mice", "set-up": "species or system mouse", "conditions": "1-week administration of GW4064"}, "SHP+/+ and SHP-/- mice": {"tested_on": "SHP+/+ and SHP-/- mice", "assay": "FXR agonists in SHP+/+ and SHP-/- mice", "format": "in vivo, mouse", "conditions": "for hepatic expression of SREBP-1c, ME, CYP7A1 and ANGPTL3: 1-day treatment", "procedure": "(§1) Male C57BL/6J, KK-Ay, and ob/ob (C57BL/6J background) mice, 6-10 weeks of age, were obtained from Elevage Janvier (Le Genest St. Isle, France), CLEA Japan Inc. (Tokyo, Japan), and The Jackson Laboratory (Bar Harbor, Me., USA), respectively. All mice were maintained in a temperature-controlled (23° C.) facility with a 12-hour light/dark cycle and were given free access to food and water. The study protocols were approved by the institutional review boards. The body weight and food intake were measured every second day. The control and high-fat diet was obtained from UAR (Villemoisson sur Orge, France). […] The mice were fasted 4 hours before harvesting blood for subsequent lipid measurements, and tissues for RNA isolation, lipid measurements, and histology."}, "C57BL/6J mice": {"tested_on": "C57BL/6J mice", "assay": "Diet-induced obesity in C57BL/6J mice", "format": "in vivo, mouse", "procedure": "Male C57BL/6J and KK-Ay mice, 6-7 weeks of age, were obtained from Charles River Laboratories France (l'Arbresle, France) and CLEA Japan Inc. (Tokyo, Japan), respectively. […] All mice were maintained in a temperature-controlled (23° C.) facility with a 12 h light/dark cycle and were given free access to food and water. The control and high-fat diet was obtained from UAR (Villemoison surOrge, France). […] GW4064 was suspended in peanut oil and mixed with the high fat diet at a concentration of 180 mg per kg of food. […] The mice were fasted 4 h before harvesting blood for subsequent blood measurements, and tissues for RNA isolation, lipid measurements and histology. Oxygen consumption was measured using the Oxymax apparatus (Columbus Instruments, Columbus, Ohio).\n(§2) An OGTT was performed in animals that were fasted overnight. Glucose was administered by gavage at a dose of 2 g/kg. An IPITT was done in 4 h fasted animals. Insulin was injected at a dose of 0.75 U/kg. Glucose quantification was done with the Maxi Kit Glucometer 4 (Bayer Diagnostic, Puteaux, France) or Glucose RTU (bioMérieux Inc., Marcy l'Etoile, France). Plasma insulin concentrations were measured using ELISA (Cristal Chem Inc., Downers Grove, Ill.). Nonesterified fatty acids, triglycerides, ketone bodies, BA and total cholesterol were determined by enzymatic assays (Roche, Mannheim, Germany). cAMP was measured using the cAMP-Screen system (Applied Biosystems, Bedford, Mass.).\nPieces of mouse tissues were fixed in Bouin's solution, dehydrated in ethanol, embedded in paraffin, and cut at a thickness of 5 μm. Sections were deparaffinized, rehydrated, and stained with haematoxylin and eosin. Transmission electron microscopy was then performed."}, "BAT cells": {"tested_on": "BAT cells", "assay": "Isolated mouse BAT cells, D2 mRNA, D2 activity and cAMP", "format": "cell-based", "conditions": "BAT cells", "procedure": "as §2"}, "rats": {"tested_on": "rats", "conditions": "rats treated for 7 days; cited from earlier work"}, "HSMM [2]": {"tested_on": "HSMM", "assay": "cAMP levels in human skeletal muscle myoblasts", "format": "cell-based", "conditions": "1 mM IBMX, 30 minutes", "description": "HSMM were obtained from Cambrex (Walkersville, Md.) and were cultured according to the suppliers instructions. […] For the cAMP measurements, cells were preincubated 12 h in Opti-MEM (Life Technologies, Cergy Pontoise, France), supplemented with 1 mM IBMX. Then medium was changed and cells were incubated for another 1 h in Opti-MEM with 1 mM IBMX, after which the medium was replaced for Opti-MEM with 1 mM IBMX and the indicated compounds. After 30 minutes the cells were lysed for cAMP analysis."}, "ob/ob mice": {"tested_on": "ob/ob mice", "assay": "GW4064 treatment of ob/ob mice, serum TG", "format": "in vivo, mouse", "conditions": "chow-fed ob/ob mice, 1 week, intraperitoneal 10 mg/kg daily", "procedure": "Male C57BL/6J, KK-Ay, and ob/ob (C57BL/6J background) mice, 6-10 weeks of age, were obtained from Elevage Janvier (Le Genest St. Isle, France), CLEA Japan Inc. (Tokyo, Japan), and The Jackson Laboratory (Bar Harbor, Me., USA), respectively. All mice were maintained in a temperature-controlled (23° C.) facility with a 12-hour light/dark cycle and were given free access to food and water. The study protocols were approved by the institutional review boards. The body weight and food intake were measured every second day. The control and high-fat diet was obtained from UAR (Villemoisson sur Orge, France). The control diet (EQ12310) contained 16.8% protein, 73.5% carbohydrate, and 4.8% fat, whereas the high-fat diet (EQ/ID12309) contained 23.0% protein, 35.5% carbohydrate, and 35.9% fat. For treatment with bile acids, mice were fed diets with 0.5% (w/w) CA. The mice were fasted 4 hours before harvesting blood for subsequent lipid measurements, and tissues for RNA isolation, lipid measurements, and histology. Male SHP−/−mice and littermate SHP+/+ controls (C57/BL6-A129/SvJ mixed strain) of 8 weeks were fed the CA diet as just described or gavaged with GW4064 dissolved in corn oil at 30 mg/kg. […]\nSerum total cholesterol, TGs, and lipoprotein cholesterol and TG profiles were measured as described (Rocchi, et al., Mol Cell. 8:737-747 (2001); Picard, et al., Cell 111:931-941 (2002)). […]"}, "KK-Ay mice [3]": {"tested_on": "KK-Ay mice", "assay": "CA or GW4064 treatment of KK-Ay mice, serum lipids", "format": "in vivo, mouse", "conditions": "chow-fed KK-Ay mice, 1 week, intraperitoneal 10 mg/kg daily", "procedure": "as §1\nFor measurement of liver TGs and cholesterol content, a liver was homogenized in chloroform/methanol (2:1 v/v) using a Polytron tissue grinder (Kinematica AG, Luzern, Switzerland). Lipid extracts were prepared by the classical Folch method. Extracts were dried under N2 flow and resuspended in isopropanol."}, "HSMM [4]": {"tested_on": "HSMM", "assay": "D2 activity in human skeletal muscle myoblasts", "format": "cell-based", "conditions": "16 h incubation", "procedure": "HSMM were obtained from Cambrex (Walkersville, Md.) and were cultured according to the suppliers instructions. D2 activity measurements were performed after a 16 h incubation with the indicated compounds. For the cAMP measurements, cells were preincubated 12 h in Opti-MEM (Life Technologies, Cergy Pontoise, France), supplemented with 1 mM IBMX. Then medium was changed and cells were incubated for another 1 h in Opti-MEM with 1 mM IBMX, after which the medium was replaced for Opti-MEM with 1 mM IBMX and the indicated compounds. After 30 minutes the cells were lysed for cAMP analysis."}, "BAT of C57BL/6J mice": {"tested_on": "BAT of C57BL/6J mice", "assay": "BAT gene expression by microarray and Q-RT-PCR", "format": "in vivo, mouse", "conditions": "GW4064 treatment", "description": "For microarray analysis, RNA was isolated from BAT using the RNeasy mini kit (QIAGEN, Courtaboeuf, France). Equal amounts of RNA from mice in each group were pooled (n=3 or 4 mice) and used for cDNA synthesis. After second-strand cDNA synthesis (Life Technologies, Cergy Pontoise, France), in vitro transcription was performed with biotinylated UTP and CTP (Enzo Diagnostics, Farmingdale, N.Y.). Fragmented cRNA samples were hybridized to the Affymetrix MOE430A microarray. The raw data was analyzed using the Microarray Suite Software version 5.0 (MAS5.0, Affymetrix, Santa Clara, Calif.)."}},
  "data": [
    {"compound": "CC(C)c1onc(-c2c(Cl)cccc2Cl)c1COc1ccc(/C=C/c2cccc(C(=O)O)c2)c(Cl)c1", "note": "[GW4064]", "values": [
      {"measurement": "VLDL secretion", "setting": "KK-Ay mice [1]", "result": "significantly lowered"},
      {"measurement": "serum TGs", "setting": "SHP+/+ and SHP-/- mice; SHP+/+ mice, 0, 3 and 7 days", "result": "significantly lowered"},
      {"measurement": "hepatic expression of SREBP-1c, ME, CYP7A1 and ANGPTL3", "setting": "SHP+/+ and SHP-/- mice; SHP+/+ mice", "result": "significantly reduced"},
      {"measurement": "decrease in serum TGs", "setting": "SHP+/+ and SHP-/- mice; SHP-/- mice", "result": "completely abolished"},
      {"measurement": "hepatic expression of SREBP-1c, ME, CYP7A1 and ANGPTL3", "setting": "SHP+/+ and SHP-/- mice; SHP-/- mice", "result": "no decrease"},
      {"measurement": "effect against diet-induced obesity", "setting": "C57BL/6J mice; high fat diet supplemented with GW4064, 15 mg/kg daily", "result": "no protective effect"},
      {"measurement": "body weight gain", "setting": "C57BL/6J mice; mice on a high fat diet with GW4064", "result": "significantly increased"},
      {"measurement": "cAMP levels", "setting": "BAT cells", "result": "did not increase"},
      {"measurement": "plasma TG", "setting": "rats", "result": "decreased"},
      {"measurement": "cAMP levels", "setting": "HSMM [2]", "result": "did not increase"},
      {"measurement": "serum TG levels", "setting": "ob/ob mice", "result": "potently lowered"},
      {"measurement": "serum TG levels", "setting": "KK-Ay mice [3]", "result": "potently lowered"},
      {"measurement": "D2 activity", "setting": "HSMM [4]", "result": "did not induce"},
      {"measurement": "thermogenic gene response", "setting": "BAT of C57BL/6J mice", "result": "did not result in an induction"}
    ]}
  ]
}
